What was measured:
[1] = system: A549-ACE2 infected with SARS-CoV-2; assay: SARS-CoV-2 infection rate relative to DMSO; higher = more infection; conditions: 24 h
U2OS [2] = assay: cell viability relative to DMSO; higher = less toxic; conditions: 72 h
Calu-3 [3] = assay: as above; conditions: 72 h
Vero E6 [4] = assay: as above; conditions: 72 h
Caco-2 [5] = assay: as above; conditions: 72 h
HepG2 [6] = assay: as above; conditions: 72 h
[7] = system: A549-ACE2 infected with SARS-CoV-2; assay: morphology score (similarity to uninfected cells); higher = more like uninfected cells; conditions: 24 h
A549-ACE2 [8] = assay: drug-induced phospholipidosis relative to tamoxifen; higher = more phospholipidosis
U2OS [9] = assay: relative viability EC50 (midpoint between 100% and the lowest measured viability); higher = less toxic; conditions: 72 h
Vero E6 [10] = assay: as above; conditions: 72 h
Caco-2 [11] = assay: as above; conditions: 72 h
HepG2 [12] = assay: as above; conditions: 72 h
[13] = system: A549-ACE2 infected with SARS-CoV-2; assay: cell count relative to DMSO; higher = less toxic; conditions: 24 h
U2OS [14] = assay: drug sensitivity score (DSS) for viability; higher = more toxic; extreme values may be limits of the assay; conditions: 72 h
Calu-3 [15] = assay: as above; conditions: 72 h
Vero E6 [16] = assay: as above; conditions: 72 h
Caco-2 [17] = assay: as above; conditions: 72 h
HepG2 [18] = assay: as above; conditions: 72 h
Calu-3 [19] = assay: relative viability EC50 (midpoint between 100% and the lowest measured viability); higher = less toxic; conditions: 72 h
A549-ACE2 [20] = assay: phospholipidosis EC50; higher = less potent phospholipidosis inducer

Compound: COc1cc(/C=C2\CCC/C(=C\c3ccc(O)c(OC)c3)C2=O)ccc1O [cyclovalone]
- SARS-CoV-2 infection rate ([1]; 0.3 µM): 96%
- SARS-CoV-2 infection rate ([1]; 3 µM): 103%
- SARS-CoV-2 infection rate ([1]; 10 µM): 98%
- SARS-CoV-2 infection rate ([1]; 30 µM): 21%
- cell viability (U2OS [2]; 1 nM): 96.1%
- cell viability (U2OS [2]; 10 nM): 101%
- cell viability (U2OS [2]; 100 nM): 97%
- cell viability (U2OS [2]; 1000 nM): -0.3%
- cell viability (U2OS [2]; 10000 nM): 22.4%
- cell viability (Calu-3 [3]; 1 nM): 93%
- cell viability (Calu-3 [3]; 10 nM): 100%
- cell viability (Calu-3 [3]; 100 nM): 105%
- cell viability (Calu-3 [3]; 1000 nM): 98.9%
- cell viability (Calu-3 [3]; 10000 nM): 59.3%
- cell viability (Vero E6 [4]; 1 nM): 103%
- cell viability (Vero E6 [4]; 10 nM): 91.9%
- cell viability (Vero E6 [4]; 100 nM): 99.1%
- cell viability (Vero E6 [4]; 1000 nM): 84.1%
- cell viability (Vero E6 [4]; 10000 nM): 108%
- cell viability (Caco-2 [5]; 1 nM): 93%
- cell viability (Caco-2 [5]; 10 nM): 102%
- cell viability (Caco-2 [5]; 100 nM): 100%
- cell viability (Caco-2 [5]; 1000 nM): 96.1%
- cell viability (Caco-2 [5]; 10000 nM): 101%
- cell viability (HepG2 [6]; 1 nM): 88.9%
- cell viability (HepG2 [6]; 10 nM): 95.2%
- cell viability (HepG2 [6]; 100 nM): 99%
- cell viability (HepG2 [6]; 1000 nM): 92.8%
- cell viability (HepG2 [6]; 10000 nM): 90.4%
- morphology score ([7]; 0.3 µM): 0.08
- morphology score ([7]; 3 µM): 0.06
- morphology score ([7]; 10 µM): 0.05
- morphology score ([7]; 30 µM): 0.46
- drug-induced phospholipidosis (A549-ACE2 [8]; 0.3 µM, 24 h): 3.68%
- drug-induced phospholipidosis (A549-ACE2 [8]; 0.3 µM, 48 h): 2.15%
- drug-induced phospholipidosis (A549-ACE2 [8]; 0.3 µM, 72 h): 2.61%
- drug-induced phospholipidosis (A549-ACE2 [8]; 0.833333 µM, 24 h): 3.84%
- drug-induced phospholipidosis (A549-ACE2 [8]; 0.833333 µM, 48 h): 1.38%
- drug-induced phospholipidosis (A549-ACE2 [8]; 0.833333 µM, 72 h): -0.476%
- drug-induced phospholipidosis (A549-ACE2 [8]; 3.33333 µM, 24 h): 17.9%
- drug-induced phospholipidosis (A549-ACE2 [8]; 3.33333 µM, 48 h): 12.4%
- drug-induced phospholipidosis (A549-ACE2 [8]; 3.33333 µM, 72 h): 7.23%
- drug-induced phospholipidosis (A549-ACE2 [8]; 6.66667 µM, 24 h): 21.4%
- drug-induced phospholipidosis (A549-ACE2 [8]; 10 µM, 24 h): 23.9%
- drug-induced phospholipidosis (A549-ACE2 [8]; 30 µM, 24 h): 23.4%
- relative viability EC50 (U2OS [9]): 0.293 µM
- relative viability EC50 (Vero E6 [10]): > 10 µM
- relative viability EC50 (Caco-2 [11]): > 10 µM
- relative viability EC50 (HepG2 [12]): > 10 µM
- cell count ([13]; 0.3 µM): 99%
- cell count ([13]; 3 µM): 97%
- cell count ([13]; 10 µM): 80%
- cell count ([13]; 30 µM): 31%
- drug sensitivity score (U2OS [14]): 18.4
- drug sensitivity score (Calu-3 [15]): 2.2
- drug sensitivity score (Vero E6 [16]): 0
- drug sensitivity score (Caco-2 [17]): 0
- drug sensitivity score (HepG2 [18]): 0

Compound: COC(=O)[C@]12CCC(C)(C)C[C@H]1[C@H]1C(=O)C=C3[C@@]4(C)C=C(C#N)C(=O)C(C)(C)[C@@H]4CC[C@@]3(C)[C@]1(C)CC2 [Bardoxolone Methyl]
- SARS-CoV-2 infection rate ([1]; 0.3 µM): 98%
- SARS-CoV-2 infection rate ([1]; 3 µM): 61%
- cell viability (U2OS [2]; 1 nM): 101%
- cell viability (U2OS [2]; 10 nM): 96.7%
- cell viability (U2OS [2]; 100 nM): 96.6%
- cell viability (U2OS [2]; 1000 nM): 0.1%
- cell viability (U2OS [2]; 10000 nM): -0.3%
- cell viability (Calu-3 [3]; 1 nM): 107%
- cell viability (Calu-3 [3]; 10 nM): 124%
- cell viability (Calu-3 [3]; 100 nM): 117%
- cell viability (Calu-3 [3]; 1000 nM): 12.8%
- cell viability (Calu-3 [3]; 10000 nM): 0%
- cell viability (Vero E6 [4]; 1 nM): 98.6%
- cell viability (Vero E6 [4]; 10 nM): 107%
- cell viability (Vero E6 [4]; 100 nM): 92.3%
- cell viability (Vero E6 [4]; 1000 nM): 5.5%
- cell viability (Vero E6 [4]; 10000 nM): -0.3%
- cell viability (Caco-2 [5]; 1 nM): 86.4%
- cell viability (Caco-2 [5]; 10 nM): 88.7%
- cell viability (Caco-2 [5]; 100 nM): 85.9%
- cell viability (Caco-2 [5]; 1000 nM): 14.1%
- cell viability (Caco-2 [5]; 10000 nM): -0.2%
- cell viability (HepG2 [6]; 1 nM): 94.7%
- cell viability (HepG2 [6]; 10 nM): 107%
- cell viability (HepG2 [6]; 100 nM): 87.4%
- cell viability (HepG2 [6]; 1000 nM): 4%
- cell viability (HepG2 [6]; 10000 nM): -0.2%
- morphology score ([7]; 0.3 µM): 0.09
- morphology score ([7]; 3 µM): -0.03
- drug-induced phospholipidosis (A549-ACE2 [8]; 0.3 µM, 24 h): 0.65%
- drug-induced phospholipidosis (A549-ACE2 [8]; 0.3 µM, 48 h): 2.45%
- drug-induced phospholipidosis (A549-ACE2 [8]; 0.3 µM, 72 h): 7%
- relative viability EC50 (U2OS [9]): 0.292 µM
- relative viability EC50 (Calu-3 [19]): 0.503 µM
- relative viability EC50 (Vero E6 [10]): 0.293 µM
- relative viability EC50 (Caco-2 [11]): 0.313 µM
- relative viability EC50 (HepG2 [12]): 0.239 µM
- cell count ([13]; 0.3 µM): 97%
- cell count ([13]; 3 µM): 5%
- drug sensitivity score (U2OS [14]): 18.4
- drug sensitivity score (Calu-3 [15]): 15.4
- drug sensitivity score (Vero E6 [16]): 18.3
- drug sensitivity score (Caco-2 [17]): 17.5
- drug sensitivity score (HepG2 [18]): 19.4

Compound: CC1(N2CCC(n3c([C@@H]4CCCNC4)nc4ccccc43)CC2)CCCCCCC1 [MCOPPB]
- SARS-CoV-2 infection rate ([1]; 0.3 µM): 89%
- SARS-CoV-2 infection rate ([1]; 3 µM): 23%
- SARS-CoV-2 infection rate ([1]; 10 µM): 16%
- SARS-CoV-2 infection rate ([1]; 30 µM): 27%
- cell viability (U2OS [2]; 1 nM): 98.6%
- cell viability (U2OS [2]; 10 nM): 104%
- cell viability (U2OS [2]; 100 nM): 98.6%
- cell viability (U2OS [2]; 1000 nM): 100%
- cell viability (U2OS [2]; 10000 nM): 91.4%
- cell viability (Calu-3 [3]; 1 nM): 99.2%
- cell viability (Calu-3 [3]; 10 nM): 99.8%
- cell viability (Calu-3 [3]; 100 nM): 91.6%
- cell viability (Calu-3 [3]; 1000 nM): 99%
- cell viability (Calu-3 [3]; 10000 nM): 7.3%
- cell viability (Vero E6 [4]; 1 nM): 101%
- cell viability (Vero E6 [4]; 10 nM): 101%
- cell viability (Vero E6 [4]; 100 nM): 106%
- cell viability (Vero E6 [4]; 1000 nM): 99%
- cell viability (Vero E6 [4]; 10000 nM): 98.9%
- cell viability (Caco-2 [5]; 1 nM): 111%
- cell viability (Caco-2 [5]; 10 nM): 105%
- cell viability (Caco-2 [5]; 100 nM): 93.5%
- cell viability (Caco-2 [5]; 1000 nM): 100%
- cell viability (Caco-2 [5]; 10000 nM): 89.3%
- cell viability (HepG2 [6]; 1 nM): 94%
- cell viability (HepG2 [6]; 10 nM): 100%
- cell viability (HepG2 [6]; 100 nM): 99.5%
- cell viability (HepG2 [6]; 1000 nM): 87.5%
- cell viability (HepG2 [6]; 10000 nM): 55.1%
- morphology score ([7]; 0.3 µM): 0.38
- morphology score ([7]; 3 µM): 0.73
- morphology score ([7]; 10 µM): 0.28
- morphology score ([7]; 30 µM): -0.07
- drug-induced phospholipidosis (A549-ACE2 [8]; 0.3 µM, 24 h): 5.09%
- drug-induced phospholipidosis (A549-ACE2 [8]; 0.3 µM, 48 h): 5.47%
- drug-induced phospholipidosis (A549-ACE2 [8]; 0.3 µM, 72 h): 4.22%
- drug-induced phospholipidosis (A549-ACE2 [8]; 0.833333 µM, 24 h): 34%
- drug-induced phospholipidosis (A549-ACE2 [8]; 0.833333 µM, 48 h): 17.9%
- drug-induced phospholipidosis (A549-ACE2 [8]; 0.833333 µM, 72 h): 12.1%
- drug-induced phospholipidosis (A549-ACE2 [8]; 3.33333 µM, 24 h): 89.2%
- drug-induced phospholipidosis (A549-ACE2 [8]; 3.33333 µM, 48 h): 70.6%
- drug-induced phospholipidosis (A549-ACE2 [8]; 3.33333 µM, 72 h): 45%
- drug-induced phospholipidosis (A549-ACE2 [8]; 6.66667 µM, 24 h): 113%
- drug-induced phospholipidosis (A549-ACE2 [8]; 6.66667 µM, 48 h): 117%
- drug-induced phospholipidosis (A549-ACE2 [8]; 6.66667 µM, 72 h): 98.9%
- drug-induced phospholipidosis (A549-ACE2 [8]; 10 µM, 24 h): 138%
- drug-induced phospholipidosis (A549-ACE2 [8]; 10 µM, 48 h): 145%
- drug-induced phospholipidosis (A549-ACE2 [8]; 10 µM, 72 h): 137%
- drug-induced phospholipidosis (A549-ACE2 [8]; 30 µM, 24 h): 112%
- drug-induced phospholipidosis (A549-ACE2 [8]; 30 µM, 48 h): 111%
- drug-induced phospholipidosis (A549-ACE2 [8]; 30 µM, 72 h): 141%
- relative viability EC50 (U2OS [9]): > 10 µM
- relative viability EC50 (Calu-3 [19]): 3.09 µM
- relative viability EC50 (Vero E6 [10]): > 10 µM
- relative viability EC50 (Caco-2 [11]): > 10 µM
- cell count ([13]; 0.3 µM): 106%
- cell count ([13]; 3 µM): 115%
- cell count ([13]; 10 µM): 119%
- cell count ([13]; 30 µM): 120%
- phospholipidosis EC50 (A549-ACE2 [20]; 24 h): 1.64 µM
- phospholipidosis EC50 (A549-ACE2 [20]; 48 h): 3.3 µM
- phospholipidosis EC50 (A549-ACE2 [20]; 72 h): 4.88 µM
- drug sensitivity score (U2OS [14]): 0
- drug sensitivity score (Calu-3 [15]): 5.3
- drug sensitivity score (Vero E6 [16]): 0
- drug sensitivity score (Caco-2 [17]): 0
- drug sensitivity score (HepG2 [18]): 4.2

Reference: the supplement of paper PMC13380429
